Results reported in patent publication US20170184612A1, “USE OF LEUKOCYTES AND NOVEL BIOMARKERS IN THE DIAGNOSIS, CONFIRMATION, AND TREATMENT OF A NEUROLOGICAL DISORDER” (The Trustees of Columbia University in the City of New York, priority 2014, published 2017).

Assays:
[1] = tested on: peripheral blood mononuclear cells (PBMC), T cells; assay: ELISpot assay, gamma-interferon release (SFC) after stimulation with a-synuclein epitope pools; type: cell-based, human; settings: for Pool +: IFNg, Pool Stimulated, number of donors with a positive response, Donors tested 1
Procedure, shortened: (§1)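 Ficoll-isolated PBMC, PD vs age-matched controls, blinded; peptide pools (122 candidates + pS129 epitopes), 22 h, 37 C. Positive pools deconvoluted.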

[2] = tested on: peripheral blood mononuclear cells (PBMC), T cells; assay: ELISpot assay, IL-5 release (SFC) after stimulation with a-synuclein epitope pools; type: cell-based, human
Procedure, shortened: as §1

[3] = Patients Summary, PD patients, of donors tested (peptide)
[4] = Patients Summary, PD patients, single peptide
[5] = number of donors positive to the single peptide, second 'Pool Stimulated' section (from r296), 12 donors tested
[6] = peptide + / donors tested (peptide), second 'Pool Stimulated' section (from r296), 12 donors tested
[7] = single peptide, second 'Pool Stimulated' section (from r296), 12 donors tested
[8] = Patients Summary, Phospho pool peptides
[9] = Patients Summary, Phospho pool peptides, 10 donors tested
[10] = peptides of pool 'Poshpho', 8 donors tested
[11] = peptides of pool 'Poshpho', 8 donors tested, number of donors positive

Substance | Pool + [1] | IFNg Peptide + (donors positive to the peptide) [1, 3] | IFNg Response Frequency [1, 4] [%] | IFNg Total SFC [1, 4] [SFC] | IFNg Peptide + [1, 5] | IFNg Response Frequency [1, 6] [%] | IFNg Total SFC [1, 7] [SFC] | IL-g Peptide + (donors positive to the peptide) [2, 3] | IL-g Response Frequency [2, 4] [%] | IL-g Total SFC [2, 4] [SFC] | IL-g Peptide + [2, 5] | IL-g Response Frequency [2, 6] [%] | IL-g Total SFC [2, 7] [SFC] | IL-g Avg SFC [2, 4] [SFC] | IL-g Avg SFC [2, 7] [SFC] | further results
3521.0013 (VTNVGGAVV; listed as Homo sapiens) | 0 | 1 | 50 | 209 | 0 | 0 | 0 | 0 | 0 | 0 | 0 | 0 | 0 | – | – | IFNg Avg SFC [1, 4]: 209 SFC
3521.0071 (YVGSKTKEGVVHGVT; listed as Homo sapiens) | 0 | 0 | 0 | 0 | – | – | – | 1 | 17 | 35 | – | – | – | 35 | – | –
3521.0058 (SEEGYQDYEP; listed as Homo sapiens) | 0 | 0 | 0 | 0 | 0 | 0 | – | 0 | 0 | 0 | 1 | 50 | 58 | – | 58 | Pool + ([1]; pool 'Phospho' (phosphorylated peptides)): 1; IFNg Avg SFC [1, 8]: 107 SFC; IFNg Response Frequency [1, 8]: 20%; IFNg Total SFC [1, 8]: 213 SFC; IFNg Peptide + (donors positive to the peptide) [1, 9]: 1; IFNg Avg SFC [1, 10]: 26.7 SFC; IFNg Response Frequency [1, 10]: 13%; IFNg Total SFC [1, 10]: 26.7 SFC; IFNg Peptide + [1, 11]: 1; IL-g Avg SFC [2, 8]: 73 SFC; IL-g Response Frequency [2, 8]: 10%; IL-g Total SFC [2, 8]: 73 SFC; IL-g Peptide + (donors positive to the peptide) [2, 9]: 1; IL-g Response Frequency [2, 10]: 0%; IL-g Total SFC [2, 10]: 0 SFC; IL-g Peptide + [2, 11]: 0
3521.0034 (GVLYVGSKTK; listed as Homo sapiens) | 1 | 5 | 83 | 2260 | – | – | – | 2 | 33 | 284 | – | – | – | 142 | – | IFNg Avg SFC [1, 4]: 452 SFC
3521.0067 (KTKEGVVHG; listed as Homo sapiens) | 0 | 0 | 0 | 0 | – | – | – | 0 | 0 | 0 | – | – | – | – | – | –
3521.0035 (SIAAATGFVK; listed as Homo sapiens) | 1 | 1 | 25 | 1946 | 0 | 0 | 0 | 1 | 25 | 1898 | 1 | 50 | 536 | 1898 | 536 | IFNg Avg SFC [1, 4]: 1946 SFC
3521.0064 (GVVHGVATV; listed as Homo sapiens) | 1 | 0 | 0 | 0 | 0 | 0 | 0 | 0 | 0 | 0 | 1 | 50 | 75 | – | 75 | –
3521.0049 (APQEGILEDM; listed as Homo sapiens) | 0 | 0 | 0 | 0 | 0 | 0 | 0 | 0 | 0 | 0 | 0 | 0 | 0 | – | – | –
3521.0048 (EQVTNVGGAV; listed as Homo sapiens) | 0 | 0 | 0 | 0 | 0 | 0 | 0 | 0 | 0 | 0 | 0 | 0 | 0 | – | – | –
3521.0073 (TTVAEKTKEQVTNVG; listed as Homo sapiens) | 1 | 0 | 0 | 0 | 0 | 0 | 0 | 0 | 0 | 0 | 0 | 0 | 0 | – | – | –
3521.0044 (GVTAVAQKTV; listed as Homo sapiens) | 0 | 0 | 0 | 0 | 0 | 0 | 0 | 0 | 0 | 0 | 0 | 0 | 0 | – | – | –
3521.0008 (IAAATGFVK; listed as Homo sapiens) | 0 | 0 | 0 | 0 | 0 | 0 | 0 | 1 | 25 | 177 | 0 | 0 | 0 | 177 | – | –
3521.0079 (KGVVHGVATVAEKTK; listed as Homo sapiens) | 1 | 0 | 0 | 0 | 0 | 0 | 0 | 0 | 0 | 0 | 1 | 50 | 284 | – | 284 | –
